Reference: patent publication US20090325858A1, “Reduction of Zinc-Induced Neurotoxic Injury By Blockade of Nitric Oxide Synthesis” (ANDRO DIAGNOSTICS, INC., priority 2003, published 2009)
Entries after “also recorded” stand apart in the source; their conditions may differ.

Columns and labels:
[1] = molecular target: Zn^2+-bound CA (bovine CA I); conditions: cited from earlier work
[2] = system: hippocampal slice; assay: Zn2+ release from hippocampal slice in oxygen-glucose deprivation (OGD) and reperfusion, Newport Green; format: cell-based, rat; conditions: slices pretreated, 1 mM
Source text: In the in vitro model, the ischemia was translated to the hippocampal slice using the established oxygen-glucose deprivation (OGD) paradigm. Zinc in the extracellular fluids of the slice was monitored using membrane impermeable Newport Green as a sensor for Zn^2+ in the extracellular fluid as described herein. The release results paralleled the results obtained in vivo from the rabbits. Zinc was released into the extracellular fluid at the onset of OGD, then even more release was observed during reperfusion (FIG. 8).

[3] = system: zinc-positive neurons; assay: Pilocarpine-induced seizures, number of zinc-positive neurons; format: in vivo
[4] = system: zinc-positive neurons in hilus and hippocampal cortex (CA3); assay: Traumatic brain injury plus hypoperfusion, number of zinc-stained neurons; format: in vivo, rat; conditions: for sparing in the number of zinc-injured (zinc-positive) neurons: trauma plus hypoperfusion
Source text: Male Sprague-Dawley rats weighing 350-400 g were anesthetized with isoflurane in an anesthetic chamber, intubated, and mechanically ventilated with 1.5-2.0% isoflurane in O2:room air (70:30) using a volume ventilator (EDCO Scientific, Chapel Hill, N.C.). Polyethylene cannulae were placed in both femoral arteries and one femoral vein for arterial pressure monitoring and hemorrhage and for drug infusion, respectively. Rectal and temporalis muscle temperatures were monitored using telethermometers (Yellow Springs Instruments, Yellow Springs, Ohio). Rectal temperature was maintained using a thermostatically controlled water blanket (Gaymar, Orchard Park, N.Y.).
Rats were prepared for parasagittal fluid-percussion traumatic brain injury (TBI) and for laser Doppler flowometry as described below. Intracranial pressure (ICP) was monitored continuously using a Camino probe (V420, Camino Laboratories, San Diego, Calif.) placed in a lateral ventricle through a small craniotomy placed posterior and lateral to the fluid percussion injury site. Isoflurane was lowered to 1.5%; the rats were connected to the trauma device, and subjected to moderate or severe traumatic brain injury.
After traumatic brain injury (or sham-TBI) blood was withdrawn from a catheter in a femoral artery to reduce MAP to 60 mmHg. Mean arterial pressure was maintained at 60 mmHg for 45 minutes during which time cerebral blood flow and ICP were measured. […] Post-resuscitation measurements were then performed. An arterial blood sample was withdrawn with each measurement series to determine PaCO2, PaO2, pH and hemoglobin concentration or hematocrit.
Fluid-percussion traumatic brain injury is a clinically relevant model that has been used in many studies of traumatic brain injury in cats, rats, and pigs (79, 82). The trauma device consists of a Plexiglas cylinder 60 cm long and 4.5 cm in diameter. One end of the device is connected to a hollow metal cylinder housing a pressure transducer (Statham PA856-100) and the other end is closed by a Plexiglas piston mounted on O-rings.
The piston is struck by a 4.8-kg steel pendulum dropped from a variable height, which determines the intensity of injury. The pressure pulse is recorded on a storage oscilloscope triggered photoelectrically by the descent of the pendulum. Sham-injured rats were connected to the trauma device but were not injured.
The effects of a moderate (2.0 atm) or severe (3.0 atm) levels of injury were studied. Moderate injury (2.1 atm) is associated with 10% mortality, reductions in EEG amplitude for 10 to 15 min, brief (<5 min) suppression of reflexes (corneal, pinna, paw flexion to pinch, righting), and return of spontaneous locomotion within 10 min. […]

[5] = system: hippocampal brain slice; assay: Zn2+ release into extracellular fluid of acute hippocampal brain slices, EnZin fluorescence; format: cell-based, rat; conditions: immediately after adding to hippocampal slice bath
Procedure: Experiments were performed on transverse hippocampal splices taken from 5 to 6 week-old male rats. In all, 41 hippocampal slices and 10 additional hippocampi taken directly from intact animals (“freshly frozen” see below) were studied quantitatively. After halothane (3.5%) inhalation in the anesthetic box, the rats were perfused with 4° C. artificial cerebrospinal fluid (ACSF) (NaCl was substituted by 190 mM sucrose) intracardially for 1 minute (76-77).
After perfusion, the rats were decapitated and the hippocampi were dissected out and placed in cold (4° C.) artificial cerebrospinal fluid. Transverse slice (400 μm) were cut with a vibratome (Campden Vibraslice, model # 752) and placed on a nylon mesh in an incubation chamber. […] The slices were kept at 20° C. in oxygenated (95% O2, 5% CO2) artificial cerebrospinal fluid for 30 minute before stimulation. The gas mixture was also bubbled through the water bath in the chamber and vented over the chamber for >30 minute before the experiment started. The standard artificial cerebrospinal fluid comprised 130 mM NaCl, 3.5 mM KCl, 1.25 mM NaH2PO4, 2 mM MgSO4, 2 mM CaCl2, 20 mM NaHCO3, 2 mM ascorbic acid and 10 mM D-glucose.
For measuring zinc release with EnZin, (apoCA+ABDN), the slices were epi-illuminated with 420 nm light and imaged through both 530 nm and 700 nm band pass filters. […] The ABDN is fluorescent at 600 nm when free, but fluoresces at 560 nm when bound to the Zn+CA (“holo” CA). Thus, the CA is the zinc detector, and the ABDN is the ratiometric fluorescent reporter. A variety of CA with different zinc affinities for different zinc measurement ranges can be generated (78).
The ratio of the 520/700 nm images were then calculated (Optimus), giving a ratiometric image of zinc concentration. In this fluorescence system, the affinity of the EnZin is so high (Kd=[…]) that it can be treated as infinite. With a stoichiometric excess of EnZin, the percent occupancy of the EnZin by Zn^2+ can be used as the modulator of fluorescence intensity. […]

[6] = system: vesicular zinc in axonal boutons of the hippocampal formation; conditions: for vesicular zinc staining of boutons (qualitative): TSQ staining, 2 hr after infusion, hippocampal formation
Procedure: Adult Sprague-Dawley rats (male, 300-350 g) were anesthetized with halothane, and mounted in a stereotaxic instrument where a bone defect was opened after reflection of the scalp.
For measuring the normal concentration of vesicular zinc in the tissue after treatment with various nitric oxide generators, frozen tissue sections were cut in a closed-top cryostat at 30 μm (−14° C.). For whole brains, starting at 3.6 mm caudal to bregma, every 3rd section was saved until 5-10 sections were obtained. For tissue slices studied in vitro, every section was saved (typically 6-9 per brain slice). After cutting, the sections were thawed onto glass slides, dried, then stained with TSQ (80-82).
The sections were stained with TSQ, ((N-(6-methoxy-8-quinolyl)-para-1-toluenesulfonamide, Molecular Probes), as described previously (80) for fluorescence visualization of Zn^2+. Briefly, the frozen, unfixed sections were immersed in a solution of TSQ (4.5 μM) in 140 mM sodium barbital and 140 mM sodium acetate buffer (pH 10-10.5) for 60 seconds, rinsed for 60 seconds in normal saline (NaCl, 0.9%), then viewed and imaged in the microscope with no coverslip while still damp. A SPOT2 cooled CCD camera was used to capture the fluorescence images (10×n.a. 0.65) at 12 bit resolution for subsequent quantitation of zinc-TSQ fluorescence intensity. Control and treated tissues were always digitized in the same sitting to guard against sensitivity changes in the system.
Rats were anesthetized, a microsyringe and needle were lowered into the hippocampal formation or neocerebellar cortex by stereotaxis and then nitric oxide generators were infused into the tissue. After 120 minutes of survival, the rats were sacrificed and the brains were cut and stained to show the location and concentration of the weakly bound Zn^2+ that is normally sequestered in the presynaptic boutons, i.e., vesicular zinc. Zinc localization and quantification were determined by TSQ fluorescence staining.

NS(=O)(=O)c1ccc(NCCO)c2nonc12 [ABDN]
Kd [1]: 45 µM

COC(=O)[C@@H](N)CCCNC(=N)N[N+](=O)[O-] [L-NAME, N(6)-nitro-L-arginine methyl ester]
Zn^2+ release into extracellular fluid after OGD and reperfusion [2]: almost completely blocked | number of zinc-positive neurons after excitotoxic insult (qualitative) [3]: dramatically reduces | number of zinc-stained cells (qualitative) ([4]; TBI plus hypoperfusion, prior administration): substantial reduction; also recorded: greatly reduces | number of zinc-positive neurons after excitotoxic insult (qualitative) ([4]; blunt-trauma): dramatically reduces | sparing in the number of zinc-injured (zinc-positive) neurons ([4]; hilus): 50% | sparing in the number of zinc-injured (zinc-positive) neurons ([4]; hippocampal cortex (CA3)): 50%

CC(=O)N[C@H](C(=O)O)C(C)(C)SN=O [SNAP, S-nitroso-N-acetyl-L-penicillamine]
Zn^2+ fluorescence in the slice bath / extracellular fluid [5]: rapid (within seconds) increase; also recorded: raised

NCCCNCCCCN(CCCN)/[N+]([O-])=N/O [Spermine NO, Spermine-NONOate]
vesicular zinc staining of boutons (qualitative) [6]: depletes zinc | vesicular zinc in the hilus reduced compared to control ([6]; quantitative microfluorimetric analysis, hilus, in vivo infusion): about 60% | Zn^2+ fluorescence in the slice bath / extracellular fluid [5]: rapid (within seconds) increase

NCCCNCCCCNCCCN [Spermine]
vesicular zinc staining of boutons (qualitative) [6]: unaffected | Zn^2+ fluorescence in the slice bath / extracellular fluid [5]: no effect
